# Data reported in publication PMC3608651, “A Broad Profile of Co-Dominant Epitopes Shapes the Peripheral Mycobacterium tuberculosis Specific CD8+ T-Cell Immune Response in South African Patients with Active Tuberculosis” (PLoS ONE, 2013).
# Where two headings read alike, the source gives them in different places.
# Assays:
# Format in all cases: binding
# HLA-C*07:01 = HLA-C*07:01 (Homo sapiens, UniProt P10321, K90N/S123Y); conditions: duplicated experiments, positive binder >40%
# HLA-B*58:01 [1] = molecular target: T1, HLA-B*58:01 (Homo sapiens, UniProt P01889, A329T/C349S/D201E/D98Y/E176V/E187L/E204Q/E69T/G107R/I218V/I90N/K202T/L105A/L119I/N104I/N87E/Q89R/Q94S/R106L/R155S/R180L/R86G/S101N/S121R/S35A/S48A/T118I/V127L/V306I/V36M/Y140S/Y91M)
# HLA-A*68:01 = HLA-A*68:01 (Homo sapiens, UniProt P04439, A269V/D185E/E176V/E277Q/E87N/F33Y/G231S/I121M/I166T/I218V/L180W/L300P/L318F/N151K/P208A/P217A/Q86R/R169H/T345S); conditions: duplicated experiments, positive binder >40%
# HLA-B*58:01 [2] = molecular target: T1, HLA-B*58:01; conditions: duplicated experiments, positive binder >40%
# HLA-B*58:01 [3] = molecular target: T1, HLA-B*58:01; conditions: time points 0-8 h
# HLA-A*02:01 = HLA-A*02:01 (Homo sapiens, UniProt P04439, D140Y/D185E/D98H/E176V/E277Q/G131W/G231S/I119V/I121R/I166T/I218V/L300P/L318F/N151K/N90K/P208A/P217A/Q86G/Q94H/R138H/R169H/T345S); conditions: plate-bound monomer 0.5 µg/ml, duplicated experiments, positive binder >40%
# HLA-A*30:01 = HLA-A*30:01 (Homo sapiens, UniProt P04439, D140H/D185E/E176W/F33S/G80R/H175R/K168Q/R138E/R41S); conditions: duplicated experiments, positive binder >40%
# HLA-A*24:02 = HLA-A*24:02 (Homo sapiens, UniProt P04439, D101N/D140Y/D185E/E176V/E190D/F33S/G103R/G107R/I119L/I121M/I306V/K335N/L105A/L180Q/L300P/N151K/N90K/Q86E/Q94H/R106L/R138H/R89G/T104I/T345S/V100E/W191G/Y123F); conditions: duplicated experiments, positive binder >40%
# HLA-B*07:02 = HLA-B*07:02 (Homo sapiens, UniProt P01889); conditions: percent relative the binding of positive control peptide […]; duplicated experiments; positive binder >40%
# HLA-A*30:02 [4] = molecular target: T2, HLA-A*30:02 (Homo sapiens, UniProt P04439, D101N/D140H/D185E/E176R/F33S/G80R/H175R/K168Q/Q94H/R138E/R41S/V100E)
# HLA-A*30:02 [5] = molecular target: T2, HLA-A*30:02; conditions: time points 0-8 h
# HLA-A*30:02 [6] = molecular target: T2, HLA-A*30:02; conditions: duplicated experiments, positive binder >40%
# [7] = percent relative the binding of positive control peptide […]
# [8] = percent relative the binding of positive control peptide FLPSDFFPSV
# [9] = percent relative the binding of positive control peptide KYFDEHYEY
# [10] = percent relative the binding of positive control peptide KTKDIVNGL
# [11] = percent relative the binding of positive control peptide KTGGPIYKR
# [12] = percent relative the binding of positive control peptide RYLKDQQLL
# [13] = peptide titrated 10−4 to 10−9 M
# [14] = percent relative the binding of positive control peptide IAMESIVIW
# [15] = percent relative the binding of positive control peptide KIQNFRVYY
sequence,measurement,setting,value
YQAWQAQWN [Rv0288_51–59],Bind C*07:01,HLA-C*07:01; [7],0%
same,Aff B*58:01 (ED50),HLA-B*58:01 [1],2000 nM
same,Bind A*68:01,HLA-A*68:01; [7],23%
same,Bind B*58:01,HLA-B*58:01 [2]; [7],52%
same,O-rate B*58:01 (t1/2),HLA-B*58:01 [3],2.0 h
SAWQGDTGI [Rv0288_41–49],Bind C*07:01,HLA-C*07:01; [7],12%
same,Aff B*58:01 (ED50),HLA-B*58:01 [1],30 nM
same,Bind A*68:01,HLA-A*68:01; [7],30%
same,Bind B*58:01,HLA-B*58:01 [2]; [7],46%
same,O-rate B*58:01 (t1/2),HLA-B*58:01 [3],0.6 h
PAVYLLDGL,Bind A*02:01,HLA-A*02:01; [7],9%
same,Bind C*07:01,HLA-C*07:01; [7],17%
same,Bind A*30:01,HLA-A*30:01; [7],0%
same,Bind A*68:01,HLA-A*68:01; [7],2%
same,Bind A*24:02,HLA-A*24:02; [7],38%
same,Bind B*07:02,HLA-B*07:02,63%
same,Aff A*30:02 (ED50),HLA-A*30:02 [4],9E -08 M
same,O-rate A*30:02 (t1/2),HLA-A*30:02 [5],1 h
same,Bind B*58:01,HLA-B*58:01 [2]; [7],0%
same,Bind A*30:02,HLA-A*30:02 [6]; [7],120%
GVQQKWDAT [Rv3875_53–61],Bind A*02:01,HLA-A*02:01; [8],0%
same,Bind C*07:01,HLA-C*07:01; [9],9%
same,Bind A*30:01,HLA-A*30:01; [10],9%
same,Bind A*68:01,HLA-A*68:01; [11],0%
same,Bind A*24:02,HLA-A*24:02; [12],0%
same,Bind B*07:02,HLA-B*07:02,10%
same,Aff A*30:02 (ED50),HLA-A*30:02 [4]; [13],3e-08 M
same,O-rate A*30:02 (t1/2),HLA-A*30:02 [5],1.3 h
same,Bind B*58:01,HLA-B*58:01 [2]; [14],6%
same,Bind A*30:02,HLA-A*30:02 [6]; [15],78%
AYHPQQFIY,Bind A*02:01,HLA-A*02:01; [7],13%
same,Bind C*07:01,HLA-C*07:01; [7],43%
same,Bind A*30:01,HLA-A*30:01; [7],6%
same,Bind A*68:01,HLA-A*68:01; [7],5%
same,Bind A*24:02,HLA-A*24:02; [7],60%
same,Bind B*07:02,HLA-B*07:02,0%
same,Aff A*30:02 (ED50),HLA-A*30:02 [4],1E -07 M
same,O-rate A*30:02 (t1/2),HLA-A*30:02 [5],1.9 h
same,Bind B*58:01,HLA-B*58:01 [2]; [7],35%
same,Bind A*30:02,HLA-A*30:02 [6]; [7],111%
MTEQQWNFA [Rv3875_1–9],Bind A*02:01,HLA-A*02:01; [8],13%
same,Bind C*07:01,HLA-C*07:01; [9],0%
same,Bind A*30:01,HLA-A*30:01; [10],0%
same,Bind A*68:01,HLA-A*68:01; [11],25%
same,Bind A*24:02,HLA-A*24:02; [12],0%
same,Bind B*07:02,HLA-B*07:02,2%
same,Aff A*30:02 (ED50),HLA-A*30:02 [4]; [13],2e-08 M
same,O-rate A*30:02 (t1/2),HLA-A*30:02 [5],1.4 h
same,Bind B*58:01,HLA-B*58:01 [2]; [14],2%
same,Bind A*30:02,HLA-A*30:02 [6]; [15],52%
RTISEAGQA [Rv3875_74–82],Bind A*02:01,HLA-A*02:01; [8],18%
same,Bind C*07:01,HLA-C*07:01; [9],8%
same,Bind A*30:01,HLA-A*30:01; [10],19%
same,Bind A*68:01,HLA-A*68:01; [11],4%
same,Bind A*24:02,HLA-A*24:02; [12],0%
same,Bind B*07:02,HLA-B*07:02,11%
same,Aff A*30:02 (ED50),HLA-A*30:02 [4]; [13],3e-08 M
same,O-rate A*30:02 (t1/2),HLA-A*30:02 [5],2 h
same,Bind B*58:01,HLA-B*58:01 [2]; [14],34%
same,Bind A*30:02,HLA-A*30:02 [6]; [15],98%
